Results published in PubChem BioAssay AID1963832 (Molecular Pharmacology Branch, DTP, NCI, 2024).

Tested on: 885724-159-R-J1-PDC complex spheroid viability
Assay: Anticancer human tumor 885724-159-R-J1-PDC patient-derived pancreatic adenocarcinoma cell line growth inhibition [POLQ]
Settings: for IC50: curve of first compound; for viability, T/C: stronger effect = lower value
In short: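 Complex spheroid viability model combining PDC tumour cells with endothelial (HUVEC) and MSC stromal cells. Novobiocin, ART-558 or RP6685 were tested singly and in combination with standard and investigational anticancer drugs. Each was titrated in half-log steps from near clinical Cmax, or from 10 microM where Cmax was unknown.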

[1] = second compound 0.0316 µM, first compound 0.0316 µM
[2] = second compound 0.0316 µM, first compound 0.1 µM
[3] = second compound 0.0316 µM, first compound 0.316 µM
[4] = second compound 0.0316 µM, first compound 1 µM
[5] = second compound 0.0316 µM, first compound 3.16 µM
[6] = second compound 0.0316 µM, first compound 10 µM
[7] = second compound 0.1 µM, first compound 0.0316 µM
[8] = second compound 0.1 µM, first compound 0.1 µM
[9] = second compound 0.1 µM, first compound 0.316 µM
[10] = second compound 0.1 µM, first compound 1 µM
[11] = second compound 0.1 µM, first compound 3.16 µM
[12] = second compound 0.1 µM, first compound 10 µM
[13] = second compound 0.316 µM, first compound 0.0316 µM
[14] = second compound 0.316 µM, first compound 0.1 µM
[15] = second compound 0.316 µM, first compound 0.316 µM
[16] = second compound 0.316 µM, first compound 1 µM
[17] = second compound 0.316 µM, first compound 3.16 µM
[18] = second compound 0.316 µM, first compound 10 µM
[19] = second compound 1 µM, first compound 0.0316 µM
[20] = second compound 1 µM, first compound 0.1 µM
[21] = second compound 1 µM, first compound 0.316 µM
[22] = second compound 1 µM, first compound 1 µM
[23] = second compound 1 µM, first compound 3.16 µM
[24] = second compound 1 µM, first compound 10 µM
[25] = second compound 3.16 µM, first compound 0.0316 µM
[26] = second compound 3.16 µM, first compound 0.1 µM
[27] = second compound 3.16 µM, first compound 0.316 µM
[28] = second compound 3.16 µM, first compound 1 µM
[29] = second compound 3.16 µM, first compound 3.16 µM
[30] = second compound 3.16 µM, first compound 10 µM
[31] = second compound 10 µM, first compound 0.0316 µM
[32] = second compound 10 µM, first compound 0.1 µM
[33] = second compound 10 µM, first compound 0.316 µM
[34] = second compound 10 µM, first compound 1 µM
[35] = second compound 10 µM, first compound 3.16 µM
[36] = second compound 10 µM, first compound 10 µM
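Note: spheroids exposed to compounds for 7 days.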

Q: CC1COCCN1c1cc(C2(S(C)(=N)=O)CC2)nc(-c2ccnc3[nH]ccc23)n1 (stereo unspecified) + COC1C(OC(N)=O)C(O)C(Oc2ccc3c(O)c(NC(=O)c4ccc(O)c(CC=C(C)C)c4)c(=O)oc3c2C)OC1(C)C was tested. Which IC50 (second compound 0.0316 µM) did it give?
A: 6.58 µM

Q: What about the IC50 (second compound 0.1 µM) of the same compound?
A: 7.53 µM

Q: What about the IC50 (second compound 0.316 µM) of the same compound?
A: 4.74 µM

Q: And the IC50 (second compound 1 µM)?
A: 3.83 µM

Q: What about the IC50 (second compound 3.16 µM) of the same compound?
A: 5.46 µM

Q: What about the IC50 (second compound 10 µM) of the same compound?
A: 5.74 µM

Q: And the viability, T/C [1]?
A: 95.9%

Q: What about the viability, T/C [2] of the same compound?
A: 96.8%

Q: And the viability, T/C [3]?
A: 93%

Q: And the viability, T/C [4]?
A: 67.8%

Q: And the viability, T/C [5]?
A: 60.3%

Q: What about the viability, T/C [6] of the same compound?
A: 44.6%

Q: What about the viability, T/C [7] of the same compound?
A: 102%

Q: And the viability, T/C [8]?
A: 89.7%

Q: What about the viability, T/C [9] of the same compound?
A: 95.4%

Q: And the viability, T/C [10]?
A: 73.6%

Q: And the viability, T/C [11]?
A: 59.1%

Q: What about the viability, T/C [12] of the same compound?
A: 47%

Q: And the viability, T/C [13]?
A: 87.5%

Q: What about the viability, T/C [14] of the same compound?
A: 98%

Q: And the viability, T/C [15]?
A: 95.9%

Q: And the viability, T/C [16]?
A: 68.7%

Q: And the viability, T/C [17]?
A: 56.5%

Q: And the viability, T/C [18]?
A: 43.9%

Q: And the viability, T/C [19]?
A: 101%

Q: What about the viability, T/C [20] of the same compound?
A: 102%

Q: And the viability, T/C [21]?
A: 89%

Q: What about the viability, T/C [22] of the same compound?
A: 72%

Q: What about the viability, T/C [23] of the same compound?
A: 49.1%

Q: And the viability, T/C [24]?
A: 45.5%

Q: What about the viability, T/C [25] of the same compound?
A: 102%

Q: What about the viability, T/C [26] of the same compound?
A: 85.6%

Q: And the viability, T/C [27]?
A: 91.3%

Q: What about the viability, T/C [28] of the same compound?
A: 72.6%

Q: And the viability, T/C [29]?
A: 54.8%

Q: What about the viability, T/C [30] of the same compound?
A: 43.9%

Q: What about the viability, T/C [31] of the same compound?
A: 111%

Q: What about the viability, T/C [32] of the same compound?
A: 92.2%

Q: What about the viability, T/C [33] of the same compound?
A: 94.1%

Q: What about the viability, T/C [34] of the same compound?
A: 72.7%

Q: What about the viability, T/C [35] of the same compound?
A: 51.7%

Q: What about the viability, T/C [36] of the same compound?
A: 47%

Q: Which IC50 (second compound 0.0316 µM) does the source give for CC1COCCN1c1cc(-c2ccnn2C)c2ccnc(-c3ccn[nH]3)c2n1 (stereo unspecified) + COC1C(OC(N)=O)C(O)C(Oc2ccc3c(O)c(NC(=O)c4ccc(O)c(CC=C(C)C)c4)c(=O)oc3c2C)OC1(C)C here?
A: 0.229 µM

Q: What about the IC50 (second compound 0.1 µM) of the same compound?
A: 0.211 µM

Q: What about the IC50 (second compound 0.316 µM) of the same compound?
A: 0.169 µM

Q: And the IC50 (second compound 1 µM)?
A: 0.188 µM

Q: What about the IC50 (second compound 3.16 µM) of the same compound?
A: 0.189 µM

Q: What about the IC50 (second compound 10 µM) of the same compound?
A: 0.247 µM

Q: And the viability, T/C [1]?
A: 78.3%

Q: And the viability, T/C [2]?
A: 63.8%

Q: And the viability, T/C [3]?
A: 44.3%

Q: What about the viability, T/C [4] of the same compound?
A: 42.1%

Q: What about the viability, T/C [5] of the same compound?
A: 39%

Q: And the viability, T/C [6]?
A: 39.3%

Q: And the viability, T/C [7]?
A: 76.5%

Q: And the viability, T/C [8]?
A: 64.3%

Q: What about the viability, T/C [9] of the same compound?
A: 41.6%

Q: And the viability, T/C [10]?
A: 41.5%

Q: What about the viability, T/C [11] of the same compound?
A: 35.2%

Q: What about the viability, T/C [12] of the same compound?
A: 35.6%

Q: What about the viability, T/C [13] of the same compound?
A: 81.1%

Q: What about the viability, T/C [14] of the same compound?
A: 53.8%

Q: What about the viability, T/C [15] of the same compound?
A: 44.3%

Q: What about the viability, T/C [16] of the same compound?
A: 43.5%

Q: What about the viability, T/C [17] of the same compound?
A: 43.3%

Q: And the viability, T/C [18]?
A: 36.2%

Q: And the viability, T/C [19]?
A: 84.1%

Q: And the viability, T/C [20]?
A: 55.8%

Q: And the viability, T/C [21]?
A: 43.6%

Q: And the viability, T/C [22]?
A: 43.7%

Q: What about the viability, T/C [23] of the same compound?
A: 41%

Q: And the viability, T/C [24]?
A: 33.5%

Q: And the viability, T/C [25]?
A: 76.4%

Q: What about the viability, T/C [26] of the same compound?
A: 55.9%

Q: And the viability, T/C [27]?
A: 45.5%

Q: And the viability, T/C [28]?
A: 37.8%

Q: And the viability, T/C [29]?
A: 37.8%

Q: What about the viability, T/C [30] of the same compound?
A: 33.8%

Q: And the viability, T/C [31]?
A: 77.1%

Q: And the viability, T/C [32]?
A: 57.6%

Q: And the viability, T/C [33]?
A: 48.2%

Q: And the viability, T/C [34]?
A: 41.1%

Q: What about the viability, T/C [35] of the same compound?
A: 38.9%

Q: What about the viability, T/C [36] of the same compound?
A: 34.4%

Q: Which results are given for CCc1cc2c(N3CCc4c(cc(Cn5ccnc5)cc4-c4cn(C)nc4C(F)(F)F)C3=O)cc(C)nc2c(OC)n1 + COC1C(OC(N)=O)C(O)C(Oc2ccc3c(O)c(NC(=O)c4ccc(O)c(CC=C(C)C)c4)c(=O)oc3c2C)OC1(C)C?
A: IC50 (second compound 0.0316 µM): > 10 µM; IC50 (second compound 0.1 µM): > 10 µM; IC50 (second compound 0.316 µM): > 10 µM; IC50 (second compound 1 µM): > 10 µM; IC50 (second compound 3.16 µM): > 10 µM; IC50 (second compound 10 µM): > 10 µM; viability, T/C [1]: 87.4%; viability, T/C [2]: 79.7%; viability, T/C [3]: 75.3%; viability, T/C [4]: 68.9%; viability, T/C [5]: 84.7%; viability, T/C [6]: 66.2%; viability, T/C [7]: 89%; viability, T/C [8]: 78.6%; viability, T/C [9]: 77%; viability, T/C [10]: 77.1%; viability, T/C [11]: 69.7%; viability, T/C [12]: 70.4%; viability, T/C [13]: 88.7%; viability, T/C [14]: 71.8%; viability, T/C [15]: 90.4%; viability, T/C [16]: 75.4%; viability, T/C [17]: 79.2%; viability, T/C [18]: 67.6%; viability, T/C [19]: 80%; viability, T/C [20]: 73.5%; viability, T/C [21]: 79.9%; viability, T/C [22]: 82.5%; viability, T/C [23]: 74.5%; viability, T/C [24]: 71.9%; viability, T/C [25]: 80.3%; viability, T/C [26]: 72.9%; viability, T/C [27]: 82.6%; viability, T/C [28]: 76.7%; viability, T/C [29]: 80.1%; viability, T/C [30]: 75.2%; viability, T/C [31]: 78.4%; viability, T/C [32]: 80.9%; viability, T/C [33]: 77.2%; viability, T/C [34]: 75.1%; viability, T/C [35]: 75.9%; viability, T/C [36]: 72%
